A word on the IC50: it is the concentration that inhibits the measured activity by half.

One assay deals with menin protein (Homo sapiens (Human), UniProt O00255). Description: Fluorescence polarization (FP) competitive binding assay, menin binding affinity. As to conditions: menin protein 4 nM, probe 2 nM, room temperature 30 minutes. Summed up: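 FAM-MM2, a FAM-labelled MLL1-peptide probe (2 nM), was preincubated with menin (4 nM) in PBS with 0.02% bovine γ-globulin, 4% DMSO and 0.01% Triton X-100. Compounds were added for 30 min at room temperature with shaking. FP (mP) was read at ex 485/em 530, and IC50 came from nonlinear regression of the competition curves.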
Chain of menin protein (O00255 whole entry): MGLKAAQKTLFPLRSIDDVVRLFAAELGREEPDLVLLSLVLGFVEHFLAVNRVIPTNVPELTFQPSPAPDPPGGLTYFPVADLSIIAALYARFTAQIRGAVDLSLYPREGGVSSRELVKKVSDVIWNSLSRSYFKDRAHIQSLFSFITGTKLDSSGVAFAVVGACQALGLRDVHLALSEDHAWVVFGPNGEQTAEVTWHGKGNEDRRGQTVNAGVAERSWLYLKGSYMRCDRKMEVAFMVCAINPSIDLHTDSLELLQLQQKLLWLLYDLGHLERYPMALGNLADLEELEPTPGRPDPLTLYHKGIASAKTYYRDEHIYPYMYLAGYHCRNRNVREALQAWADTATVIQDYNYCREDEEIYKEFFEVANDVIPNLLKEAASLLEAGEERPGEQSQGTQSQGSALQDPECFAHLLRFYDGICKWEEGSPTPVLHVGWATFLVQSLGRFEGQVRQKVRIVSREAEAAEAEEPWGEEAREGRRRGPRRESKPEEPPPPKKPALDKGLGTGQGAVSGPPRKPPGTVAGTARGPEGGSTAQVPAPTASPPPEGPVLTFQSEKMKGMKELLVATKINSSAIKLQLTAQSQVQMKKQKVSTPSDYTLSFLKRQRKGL
A general note: Fluorescence polarisation rises when a labelled molecule tumbles more slowly, as on binding a larger partner.

The test system of the next assay is MV4-11. Description: 7-day proliferation assay (WST-8), MV4-11. The assay is classed as cell-based. The note with it: Homo sapiens, 168 h; Table 5; MV4-11; 7 days; read-out: IC50 in cell growth inhibition. The procedure: (§1) The effect of representative Compounds of the Disclosure on cell viability was determined in a 7-day proliferation assay. Cells were maintained in the appropriate culture medium with 10% FBS at 37° C. and an atmosphere of 5% CO2.
(§2) Cells were seeded in 96-well flat bottom (Corning COSTAR, Corning, N.Y., cat #3595) at a density of 2,000-3,000 cells/well in 100 μl of culture medium. Compounds were serially diluted in the appropriate medium, and 100 μl of the diluted compounds were added to the appropriate wells of the cell plate. After the addition of compounds, the cells were incubated at 37° C. in an atmosphere of 5% CO2 for 7 days. Cell viability was determined using the WST (2-(2-methoxy-4-nitrophenyl)-3-(4-nitrophenyl)-5-(2,4-disulfophenyl)-2H-tetrazolium, monosodium salt) Cell Counting-8 Kit (Dojindo Molecular Technologies, Inc., Rockville, Md.) according to the manufacturers' instructions.
(§3) WST-8 reagent was added to each well at a final concentration of 10% (v/v), and then the plates were incubated at 37° C. for 1-2 hours for color development. The absorbance was measured at 450 nm using a SPECTRAmax PLUS plate reader (Molecular Devices, Sunnyvale, Calif.). The readings were normalized to the DMSO-treated cells and the half maximal inhibitory concentration (IC50) was calculated by nonlinear regression (four parameters sigmoid fitted with variable slope, least squares fit, and no constraint) analysis using the GraphPad Prism 5 software (GraphPad Software, La Jolla, Calif.).
In general terms: Tetrazolium dyes change colour on reduction, which living cells bring about.

The next assay deals with MOLM13. Description: 7-day proliferation assay (WST-8), MOLM13. The assay is classed as cell-based. As to conditions: Homo sapiens, MOLM-13, 168 h; Table 5; MOLM13; 7 days; read-out: IC50 in cell growth inhibition. How it is done:
as §1, §2, §3

A further assay has as its system SEM cells. Description: 7-day proliferation assay (WST-8), SEM. The assay is classed as cell-based. As to conditions: 168 h; Table 6; SEM (MLL-AF4); 7 days; read-out: IC50 in cell growth inhibition. The procedure: as §1, §2, §3
Another assay relates to MonoMac6. Description: 7-day proliferation assay (WST-8), MonoMac6. The assay is classed as cell-based. As to conditions: Homo sapiens, MONO-MAC-6, 168 h; Table 6; MonoMac6 (MLL-AF9); 7 days; read-out: IC50 in cell growth inhibition. How it is done: as §1, §2, §3
The next assay concerns RS4-11. Description: 7-day proliferation assay (WST-8), RS4-11. The assay is classed as cell-based. The note with it: Homo sapiens, RS4-11, 168 h; Table 6; 7 days; read-out: IC50 in cell growth inhibition. How it is done: as §1, §2, §3
The test system of the next assay is MOLM-4 (MLL-AF9). Description: 7-day proliferation assay (WST-8), MOLM-4. The assay is classed as cell-based. The note with it: 168 h, Table 6, 7 days, read-out: IC50 in cell growth inhibition. The procedure: as §1, §2
(§4) WST-8 reagent was added to each well at a final concentration of 10% (v/v), and then the plates were incubated at 37° C. for 1-2 hours for color development. The absorbance was measured at 450 nm using a SPECTRAmax PLUS plate reader (Molecular Devices, Sunnyvale, Calif.). […]

The subject of a further assay is K562 (no MLL fusion). Description: 7-day proliferation assay (WST-8), K562. The assay is classed as cell-based. The note with it: Homo sapiens, 168 h, Table 6, 7 days, read-out: IC50 in cell growth inhibition. The procedure:
as §1, §2, §4

Another assay concerns MOLM-16 (no MLL fusion). Description: 7-day proliferation assay (WST-8), MOLM-16. The assay is classed as cell-based. The note with it: MOLM16, 168 h, Table 6, 7 days, read-out: IC50 in cell growth inhibition. How it is done: as §1, §2, §4
The next assay has as its system SKM-1 (no MLL fusion). Description: 7-day proliferation assay (WST-8), SKM-1. The assay is classed as cell-based. The note with it: Homo sapiens, 168 h, Table 6, 7 days, read-out: IC50 in cell growth inhibition. The procedure: as §1, §2, §4
Another assay deals with HL-60 (no MLL fusion). Description: 7-day proliferation assay (WST-8), HL-60. The assay is classed as cell-based. The note with it: Homo sapiens, 168 h, Table 6, 7 days, read-out: IC50 in cell growth inhibition. How it is done:
as §1, §2, §4

For assay [1], the system named is MEIS1 and HOXA gene expression in MV4;11 cell lines. Description: MEIS1 and HOXA gene expression by RT-PCR in MV4;11. The assay is classed as cell-based. As to conditions: for MEIS1 and HOXA gene expression (mRNA levels of MEIS1, HOXA9 and HOXA11): different concentrations. The procedure: FIG. 4 is a bar graph showing that Cpd. No. 57 suppresses MEIS1 and HOXA gene expression in MV4;11 cell lines. Cells were treated with different concentrations of Cpd. No. 57 for 24 h. mRNA levels of MEIS1, HOXA9 and HOXA11 were determined by RT-PCR. *(p<0.05), **(p<0.01).
FIG. 5 is a bar graph showing that Cpd. No. 57 suppresses MEIS1 and HOXA gene expression in MV4;11 cell lines. Cells were treated with different concentrations of Cpd. No. 57 for 6 h. mRNA levels of MEIS1, HOXA9 and HOXA11 were determined by RT-PCR. *(p<0.05), **(p<0.01).
(§5) No. 57 suppresses MEIS1 and HOXA gene expression in MV4;11 and MOLM13 cell lines.

For assay [2], the system named is MEIS1 and HOXA gene expression in MOLM13 cell lines. Description: MEIS1 and HOXA gene expression by RT-PCR in MOLM13. The assay is classed as cell-based. How it is done:
FIG. 6 is a bar graph showing that Cpd. No. 57 suppresses MEIS1 and HOXA gene expression in MOLM13 cell lines. Cells were treated with different concentrations of Cpd. No. 57 for 24 h. mRNA levels of MEIS1, HOXA9 and HOXA11 were determined by RT-PCR. *(p<0.05), **(p<0.01).
as §5

For the compound `COC(=O)N[C@H]1CCC[C@@H]1[C@](C#N)(c1cccc(F)c1)C1CCN(CC2CN(c3ccc(S(=O)(=O)C4CN(C(=O)/C=C/CN(C)C)C4)cc3)C2)CC1` [Cpd. No. 57, methyl ((1S,2R)-2-((S)-cyano(1-((1-(4-((1-((E)-4-(dimethylamino)but-2-enoyl)azetidin-3-yl)sulfonyl)phenyl)azetidin-3-yl)methyl)piperidin-4-yl)(3-fluorophenyl)methyl)cyclopentyl)carbamate], the IC50 at menin protein was determined as 0.003 µM; in the assay with MV4-11, 0.0023 µM; in the assay on MOLM13, 0.0154 µM; in the assay on SEM cells it was 0.018 µM; with MonoMac6 it was 0.0103 µM; with RS4-11, 0.0094 µM. Besides, the IC50 in the assay on MOLM-4 (MLL-AF9) came out at 0.0313 µM; in the assay with K562 (no MLL fusion), 4.5 µM; in the assay with MOLM-16 (no MLL fusion), 6.5 µM; with SKM-1 (no MLL fusion), 0.9 µM; in the assay with HL-60 (no MLL fusion), 1.6 µM. Further, the “MEIS1 and HOXA gene expression (mRNA levels of MEIS1, HOXA9 and HOXA11)” value was “suppresses” in assay [1] (MV4;11, 6 h, RT-PCR (FIG. 5)); “suppresses” in [1] (MV4;11, 24 h, RT-PCR (FIG. 4)); “suppresses” in [2] (MOLM13, 24 h, different concentrations, RT-PCR (FIG. 6)). Besides, the “MEIS1 and HOXA gene expression” value is “suppresses” in assay [1] (MV4;11, summary sentence for FIG. 4, FIG. 5) and “suppresses” in assay [2] (MOLM13, summary sentence for FIG. 6).
